These molecules were tested on NLRP3 inflammasome (assay: IL-1β Secretion Assay (NLRP3-dependent IL-1β secretion in PMA-differentiated THP-1 cells, nigericin activation, HTRF)). Conditions: Homo sapiens, THP-1, THP-1 cells, 100 ng/mL PMA 24 h, compound 20 h, 2.5 μM Nigericin 3 h; read-out: IC50 IL-1β Inhibition.
Format: cell-based
Summary of the method: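 PMA-differentiated THP-1 cells in RPMI with 5% FBS were treated with compounds at 7 concentrations in threefold DMSO dilutions. NLRP3 was activated with nigericin and secreted IL-1β measured by HTRF. IC50 from a logistic fit of percent inhibition versus concentration.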
With `COc1cc(O)c(-c2nnc(N[C@@H]3C[C@@H](F)CN(C)C3)n3cccc23)c(F)c1` [Compound I-502] the IC50 was under 1 nM. With `CN1CCC[C@@H](Nc2nnc(-c3ccc(C4CC4)cc3O)c3c(F)ccn23)C1` [Compound I-599] the IC50 was 1 to 10 nM. `CN1CCC[C@@H](Nc2nnc(-c3ccc(OC4CC4)cc3O)c3ccncc23)C1` [Compound I-237, (R)-5-Cyclopropoxy-2-(4-((1-methylpiperidin-3-yl)amino)pyrido[3,4-d]pyridazin-1-yl)phenol] was tested, and the IC50 was 1 to 10 nM. Work on `CN1C[C@H](F)C[C@@H](Nc2nnc(-c3ccc(Br)cc3O)c3ccnn23)C1` [Compound I-546, 5-Bromo-2-(7-(((3R,5R)-5-fluoro-1-methylpiperidin-3-yl)amino)pyrazolo[1,5-d][1,2,4]triazin-4-yl)phenol] yielded an IC50 of 1 to 10 nM. `Oc1cc(C(F)(F)F)ccc1-c1nnc(N[C@@H]2CCCN(C3CCOCC3)C2)c2cnccc12` [Compound I-279] gave an IC50 of under 1 nM. In the case of `Cc1ccc(-c2nnc(N[C@@H]3CCCN(C)C3)c3cnccc23)c(O)c1` [Compound I-71, 5-Methyl-2-[4-[[(3R)-1-methyl-3-piperidyl]amino]pyrido[3,4-d]pyridazin-1-yl]phenol], the IC50 is reported as under 1 nM. `Cc1ccc(-c2nnc(N[C@@H]3CCCN(C)C3)c3ccccc23)c(OC(F)F)c1` [Compound I-135] showed an IC50 of 1 to 10 nM. With `CCN1C[C@H](O)C[C@@H](Nc2nnc(-c3ccc(C(F)(F)F)cc3OC(F)F)c3c(F)ccn23)C1` [Compound I-603] the IC50 was 100 to 300 nM. `CN1CCC(Nc2nnc(-c3ccc(C(F)(F)F)cc3O)c3ccncc23)CC1` [Compound I-224] gave an IC50 of 10 to 100 nM. `CC(CO)N1CCC[C@H](Nc2nnc(-c3ccc(Br)cc3O)c3cccn23)C1` (stereo partly shown) [Compound I-552] showed an IC50 of 1 to 10 nM. `Cc1cc(O)c(-c2nnc(N[C@H]3C[C@@](C)(O)C3)n3cccc23)c(F)c1` [Compound I-466] showed an IC50 of 1 to 10 nM. `Oc1cc(C(F)(F)F)ccc1-c1nnc(N[C@@H]2CC[C@H](O)C2)n2cccc12` [Compound I-448] gave an IC50 of 10 to 100 nM. `Cc1cc(C(F)(F)F)ccc1-c1nnc(N[C@@H]2CCCN(C)C2)c2cnccc12` [Compound I-290] showed an IC50 of 1 to 10 nM. Work on `Cc1cc(C(F)(F)F)cc(O)c1-c1nnc(N[C@@H]2CCCN(C)C2)n2cccc12` [Compound I-431] yielded an IC50 of under 1 nM. For `Cc1cc(OC(F)F)c(-c2nnc(N[C@@H]3CCCN(C)C3)c3cnccc23)cc1F` [Compound I-178], the IC50 was 1 to 10 nM. For `Cc1cc2c(-c3ccc(C(F)(F)F)cc3O)nnc(N[C@@H]3CCCN(C)C3)n2n1` [Compound I-329, (R)-2-(2-methyl-7-((1-methylpiperidin-3-yl)amino)pyrazolo[1,5-d][1,2,4]triazin-4-yl)-5-(trifluoromethyl)phenol], the IC50 was under 1 nM. `CN1CCC[C@@H](Nc2nnc(-c3c(O)cccc3F)c3ccccc23)C1` [Compound I-14] gave an IC50 of 1 to 10 nM. For `[2H]C1(N2CCC[C@@H](Nc3nnc(-c4ccc(C(F)(F)F)cc4O)c4ccncc34)C2)CCC1` [Compound I-300], the IC50 was under 1 nM. `COc1ccc(-c2nnc(N[C@@H]3CCCN(C)C3)c3cnccc23)c(OC(F)F)c1` [Compound I-171] showed an IC50 of under 1 nM. `FC(F)(F)c1ccc(-c2nnc(N[C@@H]3CCCN(C4CCOC4)C3)n3cccc23)c(C(F)(F)F)c1` (stereo partly shown) [Compound I-517] gave an IC50 of 1 to 10 nM. `OCCN1CCC[C@@H](Nc2nnc(-c3ccc(Br)cc3O)c3cccn23)C1` [Compound I-529] gave an IC50 of 1 to 10 nM. Work on `COc1cc(O)c(-c2nnc(N[C@@H]3CCCN(CCO)C3)n3cccc23)c(F)c1` [Compound I-457] yielded an IC50 of 1 to 10 nM. For `CN1CCC[C@@H](Nc2nnc(-c3ccc(C4CC4)cc3O)c3ccccc23)C1` [Compound I-49], the IC50 was under 1 nM. Molecule `CCN1CCC[C@H]1CNc1nnc(-c2c(O)cc(C3CC3)cc2F)c2cccn12` [Compound I-583] has an IC50 of 1 to 10 nM. `CN1CCC[C@@H](Nc2nnc(-c3ccccc3OC(F)F)c3c2CCC3)C1` [Compound I-245] was tested, and the IC50 was 1 to 10 nM. Molecule `CN1CCC[C@@H](Nc2nnc(-c3ccc(Br)cc3OCc3ccccc3)c3ccnn23)C1` [Compound I-545] has an IC50 of 10 to 100 nM. Work on `Cc1cc(O)c(-c2nnc(N[C@@H]3CCCN(CC(F)F)C3)n3cccc23)c(F)c1` [Compound I-511] yielded an IC50 of 1 to 10 nM. `CNc1cc(C(F)(F)F)ccc1-c1nnc(N[C@@H]2CCCN(C)C2)c2ccccc12` [Compound I-125] was tested, and the IC50 was 1 to 10 nM. `CN1CCC[C@@H](Nc2nnc(-c3ccc(Cl)cc3O)c3cncn23)C1` [Compound I-384] showed an IC50 of under 1 nM. `Cn1cc(CNc2nnc(-c3ccc(C(F)(F)F)cc3O)c3ccncc23)cn1` [Compound I-174] showed an IC50 of 10 to 100 nM. In the case of `Cc1ncc2c(-c3ccc(C(F)(F)F)cc3O)nnc(N[C@@H]3CCCN(C)C3)n12` [Compound I-543, (R)-2-(6-Methyl-4-((1-methylpiperidin-3-yl)amino)imidazo[1,5-d][1,2,4]triazin-1-yl)-5-(trifluoromethyl)phenol], the IC50 is reported as under 1 nM. For `Cc1cc(F)c(-c2nnc(N[C@@H]3CCCOC3)n3cccc23)c(OC(F)F)c1` [Compound I-464], the IC50 was 100 to 300 nM. `Oc1cc(Cl)ccc1-c1nnc(N[C@@H]2CCCN(CC(F)F)C2)n2cccc12` [Compound I-368] was tested, and the IC50 was 10 to 100 nM. In the case of `CCN1C[C@H](F)C[C@@H](Nc2nnc(-c3c(O)cc(Cl)cc3F)c3cccn23)C1` [Compound I-620], the IC50 is reported as 1 to 10 nM. `Cc1cc(C)c(-c2nnc(N[C@@H]3CCCN(C)C3)c3cnccc23)c(C)c1` [Compound I-205] gave an IC50 of 1 to 10 nM. `CN1C[C@H](F)C[C@@H](Nc2nnc(-c3ccc(C4CC4)cc3C(F)F)c3cccn23)C1` [Compound I-507] gave an IC50 of 10 to 100 nM. For `CN1CCC[C@@H](Nc2nnc(-c3cc(-c4ccccc4)ccc3O)c3ccccc23)C1` [Compound I-40], the IC50 was 100 to 300 nM. Work on `CN1CCC[C@@H](Nc2nnc(-c3cnc(C(F)(F)F)cc3O)c3ccccc23)C1` [Compound I-79] yielded an IC50 of 10 to 100 nM. With `COc1ccc(-c2nnc(N[C@@H]3CCCN(C)C3)c3cc(C)nn23)c(O)c1` [Compound I-351] the IC50 was 10 to 100 nM. `Oc1cc(Cl)cc(F)c1-c1nnc(NC2CCCOC2)n2cccc12` (stereo not shown) [Compound I-608] gave an IC50 of 10 to 100 nM. For `Cc1cccc2c(N[C@@H]3CCCN(C)C3)nnc(-c3ccc(C(F)(F)F)cc3O)c12` [Compound I-8], the IC50 was 1 to 10 nM. In the case of `CN1CCC[C@@H](Nc2nnc(-c3ccc(Cl)cc3O)c3ccncc23)C1` [Compound I-60], the IC50 is reported as under 1 nM. `CN1CCC[C@@H](Nc2nnc(-c3ccc(C(F)F)cc3F)c3ccncc23)C1` [Compound I-249] was tested, and the IC50 was 10 to 100 nM. Molecule `Oc1cc(C(F)(F)F)ccc1-c1nnc(NC[C@@H]2CCCN2)c2ccncc12` [Compound I-110] has an IC50 of under 1 nM. With `COc1ccc(-c2nnc(N[C@@H]3CCCN(C)C3)c3c2CCC3)c(C(F)(F)F)c1` [Compound I-258] the IC50 was 10 to 100 nM. With `Oc1cc(C(F)(F)F)ccc1-c1nnc(N[C@@H]2CCCN(C3COC3)C2)c2cnccc12` [Compound I-271] the IC50 was 1 to 10 nM. Work on `[2H]C([2H])([2H])Oc1cc(O)c(-c2nnc(N[C@@H]3CCCN(CC)C3)n3cccc23)c(F)c1` [Compound I-514, (R)-2-(4-((1-ethylpiperidin-3-yl)amino)pyrrolo[1,2-d][1,2,4]triazin-1-yl)-3-fluoro-5-(methoxy-d3)phenol] yielded an IC50 of under 1 nM. For `Cc1cc(O)c(-c2nnc(N[C@@H]3CCCN(CC(F)(F)F)C3)n3cccc23)c(F)c1` [Compound I-570], the IC50 was 1 to 10 nM. In the case of `Cc1cc2c(-c3ccc(Br)cc3O)nnc(N[C@@H]3CCCN(C)C3)n2n1` [Compound I-334], the IC50 is reported as under 1 nM. Molecule `CN1CCC[C@@H](Nc2nnc(-c3ccc(Cl)cc3OC(F)F)c3ccncc23)C1` [Compound I-132] has an IC50 of under 1 nM. Work on `CC(=O)Nc1cc(C(F)(F)F)ccc1-c1nnc(N[C@@H]2CCCN(C)C2)c2ccccc12` [Compound I-126] yielded an IC50 of 1 to 10 nM. In the case of `CN1CCC[C@@H](Nc2nnc(-c3ccc(C(F)(F)F)cc3O)c3ccoc23)C1` [Compound I-313, (R)-2-(7-((1-Methylpiperidin-3-yl)amino)furo[2,3-d]pyridazin-4-yl)-5-(trifluoromethyl)phenol], the IC50 is reported as under 1 nM. `CN1CCC[C@@H](Nc2nnc(-c3ccc(C(F)(F)F)cc3N)c3ccccc23)C1` [Compound I-123] was tested, and the IC50 was 1 to 10 nM. Molecule `Oc1cc(C(F)(F)F)ccc1-c1nnc(N[C@@H]2CCCOC2)c2cnccc12` [Compound I-309] has an IC50 of 1 to 10 nM. Work on `CCN1CCC[C@@H](Nc2nnc(-c3c(C)cc(C(F)(F)F)cc3O)c3cccn23)C1` [Compound I-606] yielded an IC50 of under 1 nM. `COc1ccc(-c2nnc(N[C@@H]3CCCN(C)C3)c3cnccc23)c(C(F)(F)F)c1` [Compound I-181] showed an IC50 of 1 to 10 nM. `Oc1cc(Br)ccc1-c1nnc(N[C@@H]2CCCNC2)n2cccc12` [Compound I-490, (R)-5-Bromo-2-(4-(piperidin-3-ylamino)pyrrolo[1,2-d][1,2,4]triazin-1-yl) phenol] was tested, and the IC50 was 1 to 10 nM. `CN1C[C@H](F)C[C@@H](Nc2nnc(-c3c(O)cc(C(F)(F)F)cc3F)c3cccn23)C1` [Compound I-416] was tested, and the IC50 was 1 to 10 nM. With `C[C@@H]1COCCN1CCNc1nnc(-c2ccc(C(F)(F)F)cc2O)c2ccccc12` [Compound I-147] the IC50 was 10 to 100 nM. `CN1CCN(C)CC(Nc2nnc(-c3ccc(C(F)(F)F)cc3O)c3ccncc23)C1` [Compound I-264] was tested, and the IC50 was 10 to 100 nM. For `CCN1CCC[C@@H](Nc2nnc(-c3ccc(C(F)(F)F)cc3OC(F)F)c3c(F)ccn23)C1` [Compound I-566], the IC50 was 1 to 10 nM. Molecule `C[C@]1(O)C[C@@H](Nc2nnc(-c3ccc(C(F)(F)F)cc3O)c3c(F)ccn23)C1` [Compound I-593] has an IC50 of 1 to 10 nM. With `CN1CC[C@@H](Nc2nnc(-c3ccc(C(F)(F)F)cc3O)c3c2CCCC3)C1` [Compound I-26] the IC50 was 10 to 100 nM. Work on `Oc1cc(C(F)(F)F)ccc1-c1nnc(N[C@@H]2CCCNC2)n2cccc12` [Compound I-352] yielded an IC50 of 1 to 10 nM. Molecule `CN1CCC[C@@H](Nc2nnc(-c3ccc(C(F)(F)F)cc3C(F)F)c3ccncc23)C1` [Compound I-138] has an IC50 of 1 to 10 nM. Molecule `CN1CCC[C@@H](Nc2nnc(-c3ccc(C#N)cc3O)c3ccccc23)C1` [Compound I-24] has an IC50 of under 1 nM.

Same assay, conditions: THP-1 cells, 100 ng/mL PMA 24 h, compound 20 h, 2.5 μM Nigericin 3 h; read-out: IC50 IL-1β Inhibition
`CN1CCC[C@@H](Nc2nnc(-c3c(F)ccc(Cl)c3O)c3ccncc23)C1` [Compound I-211] showed an IC50 of 10 to 100 nM.

— patent publication US20240262806A1, “INHIBITORS OF NLRP3” (PTC THERAPEUTICS, INC., priority 2021, published 2024)
